Consider 1 molecule from PMC4467461, “Small-molecule activation of SERCA2a SUMOylation for the treatment of heart failure” (Nature Communications, 2015).

For assay [1], the system named is HEK-293 cells co-transfected with SERCA2a and SAE1 mutants (Q312A and V315F). The assay can be described thus: N106-induced SERCA2a SUMOylation in HEK-293 cells overexpressing SAE1 mutants. The class given is cell-based. Here is the method: Supplementary Figure 4. Effects of overexpressing SAE1 mutants on N106-induced SERCA2a SUMOylation. (a) HEK-293 cells were co-transfected with SERCA2a and SAE1 wild type or SAE1 mutants (Q312A and V315F) for 24 hours. And then the transfecting HEK-293 cells were incubated with different concentration of N106 for 24 hours. The level of SERCA2a SUMOylation was determined by immunoprecipitation and following with Western blotting. (b) The levels of SAE1 overexpression were determined by Western blotting with anti- […]
(1 picture or pasted object on this page, not shown here)

Assay [2] deals with pressure overload-induced mouse model of HF (TAC). The assay can be described thus: Invasive P–V loop haemodynamics in TAC heart failure mice. Type of assay: in vivo. Here is the method:
B6C3F1 mice were acquired from Jackson Laboratories. Mice underwent TAC using a supraclavicular construction model as described. TAC or sham surgery was performed in 8∼10-week-old male mice (25∼30 g). Mice were anaesthetized with intraperitoneal ketamine (95 mg kg^−1) and xylaxine (5 mg kg^−1), and ventilated with a tidal volume of 0.1 ml and a respiratory rate of 110 breaths per minute (Harvard Apparatus, MA, USA). A 2- to 3-mm longitudinal cut was made in the proximal portion of the sternum, allowing visualization of the aortic arch. The transverse aortic arch was ligated between the innominate and left common carotid arteries with an overlaying 27-gauge needle. The needle was immediately removed, leaving a discrete region of constriction. Animal sham group underwent a similar procedure without ligation. Only animals with fractional shortening < 50% were determined as being in HF and suitable for further study.
(§1) One day after echocardiography, we performed in-vivo haemodynamics. The mice were anaesthetized with an intraperitoneal injection mixture of urethane (1 mg g^−1), etomidate (10 μg g^−1) and morphine (1 μg g^−1), and were then intubated via a tracheotomy and mechanically ventilated at 7 μl g^−1 tidal volume and 120 respirations per minute. A small incision was made in the apex and a French Millar cathether connected a high-fidelity pressure transducer (Scisense, London, ON, Canada) inserted into the LV. Haemodynamic recordings were performed after 5∼10 min of stable HR. The rate of pressure rise (+dP/dt) and maximal pressure, the time constant of isovolumic relaxation and HR were recorded and analysed. To determine the relative effects of the admittance and conductance techniques to contractility change induced by N106 compound infusion, whole haemodynamic function was recorded at both baseline and after administration of N106 compound through the external jugular vein. N106 compound was solubilized in 10% DMSO (Sigma-Aldrich), 10% Tween-80 (Sigma-Aldrich) and saline for in-vivo experiments. N106 or vehicle solutions were continuously infused through the external jugular vein at a rate of 50 μl min^−1 for 2 min in each dose. Whole haemodynamic functions of increasing dose of N106 of each mouse were recorded for ∼4 h. Each dose of N106 solution was infused after back to baseline of heart function.

For another assay, the system named is Serca2 KO mice. The assay can be described thus: Invasive P–V loop haemodynamics in cardiac-specific Serca2a knockout mice. The class given is in vivo. The protocol: Figure 5 Lack of effects of N106 on haemodynamic parameters in cardiac-specific Serca2a knockout mice. Systolic and diastolic function was determined in conditional cardiac-specific Serca2a knockout mice by pressure–volume analysis. […] There was no significant change in haemodynamic parameters with N106 treatment after a single dose (1 mg kg^−1) (a-f) and different doses (0.1, 1 and 10 mg kg^−1) (g,h). Data are represented as mean±s.e.m. n=3∼8 mice per each condition. NS, not significant; Student’s t-test.
as §1

The mark [3] stands for this setting: Serca2a knockout mice, 1 mg kg^−1.

For `COc1ccc(-c2nnc(Nc3nc4c(OC)cccc4s3)o2)cc1` [Compound N106, N-(4-methoxybenzo[d]thiazol-2-yl)-5-(4-methoxyphenyl)-1,3,4-oxadiazol-2-amine], the “N106-induced increase in SUMOylation of SERCA2a in mutant SAE1-overexpressing cells versus overexpressed WT” value in assay [1] (24 h) was “weaker”. The “Dose-dependent increases in SERCA2a SUMOylation in cells overexpressing mutants” value in assay [1] (different concentration of N106, 24 h) is reported as “not observed”. Further, in assay [2] (0.1 mg kg^−1 infusion), the “+dP/dtmax” value came out at 4803.33±91.78 mm Hg s^−1; the HR is 417.11±4.54 bpm; the Pmax was 115.11±1.27 mm Hg; the “τ, time constant of isovolumetric relaxation” value (from here on “τ, time constant”) was 7.50 ± 0.15 ms. Also, in assay [2] (0.1 mg kg^−1 infusion via jugular vein), the ESPVR slope came to 9.04±1.20 mm Hg μl^−1. In assay [2] (1 mg kg^−1 infusion), the “+dP/dtmax” value turned out to be 5448.83±147.09 mm Hg s^−1, the ESPVR slope stood at 11.26±1.00 mm Hg μl^−1, the HR was found to be 422.33±3.79 bpm and the Pmax is on record as 123.66±5.28 mm Hg. Further, the “τ, time constant” value in assay [2] (1 mg kg^−1 infusion) is 6.40 ± 0.15 ms. Besides, in assay [2] (10 mg kg^−1 infusion), the “+dP/dtmax” value is recorded as 6229.41±103.23 mm Hg s^−1, the ESPVR slope came out at 20.3±0.41 mm Hg μl^−1, the HR is given as 455.08±5.62 bpm and the Pmax was found to be 124.50±4.26 mm Hg. Further, in assay [2] (10 mg kg^−1 infusion), the “τ, time constant” value amounted to 6.27 ± 0.13 ms. Further, the “improvements in haemodynamic parameters” value in the assay with Serca2 KO mice (Serca2 KO, 1 mg kg^−1 and 0.1, 1 and 10 mg kg^−1) is “did not induce any improvements”. Further, in the assay with Serca2 KO mice (setting [3]), the “+dP/dtmax” value was 2917.8±412.9 mm Hg s^−1, the HR worked out at 311.2±16.1 bpm, the Pmax is listed as 75.0±4.4 mm Hg and the τ is 11.2 ± 1.0 ms. In the assay on Serca2 KO mice (Serca2a knockout mice, 1 mg kg^−1 via jugular vein), the ESPVR slope was found to be 3.9±0.7 mm Hg μl^−1.
